Converted amounts (≈) assume the structure as drawn. Read-outs that look alike come from different tables or passages of the source.
Experiments:
control seedlings = test: Seedling assay, control (herbicide sensitive) seedlings; type: in vivo, maize; conditions: Zea mays, read-out: concentration inhibiting shoot growth 50%
Source text: Seeds to be used as controls in the heritability assay were obtained from regenerated plants from an herbicide sensitive cell line of the same genetic background as line XA17. These regenerated plants were crossed with pollen obtained from a herbicide sensitive inbred B73 plant grown from seed. Seeds were harvested approximately forty days after pollination.
(§1) Twenty control seeds and ten XA17 seeds were surface sterilized with 2.6% sodium hypochlorite for twenty minutes and then washed with sterile distilled water. The seed was imbibed overnight in sterile water containing a small quantity of the fungicide, captan (N-trichloromethylthio-4-cyclohexene-1,2-dicarboximide). The mature embryos were then excised from the seed and plated scutellum side down on solid MS media without 2,4-D. Ten control seeds were plated on media containing no 214 and ten were plated in the presence of 6×10^-8M 214 which had been incorporated into the medium after autoclaving but before gelling. All ten XA17 seeds were plated in the presence of 6×10^-8 M 214. Seedlings were evaluated seven days after plating.
(§2) XA17 seeds homozygous for the resistance trait were obtained as described in Section 6.4.6. […] Assays were conducted as described in Section 6.4.5.

[1] = system: unselected maize callus tissue; test: Callus culture growth inhibition, unselected tissue; type: cell-based; conditions: Zea mays, 336 h, read-out: level giving a 50% growth inhibition
Protocol: (§3) Therefore the effects of 214 were determined on callus growth. Quantities of tissue averaging 90 mg in size were transferred to nutrient agar maintenance media containing concentrations of 214 ranging from 0.003 to 3 mg per liter. Eight tissue pieces were placed on each plate with three plates per herbicide concentration. After 14 days growth, the tissue was weighed again.

[2] = system: AHAS activity of line XA17 tissue; test: AHAS activity assay, line XA17 tissue; type: biochemical, maize; conditions: for IC50: AHAS activity of line XA17 tissue, read-out: concentration inhibiting AHAS activity 50%
Protocol: (§4) Assays were conducted as a modification of the procedure of Smith et al. (1979, Molec. Gen. Genet. 169: 299-314). Plant cell culture material was ground with sand in a cold mortar and pestle in an equal quantity (w/v) of cell disruption media containing 0.05 M potassium phosphate (pH 7.0), 0.1 mM MgSO4, and 0.5 mM dithiothreitol. The preparation was centrifuged at 11,000×g for 20 minutes and the supernatant assayed for AHAS activity. Assays were conducted in 1 ml volumes containing 0.05 M potassium phosphate (pH 8.0), 40 mM pyruvate, 5 mM MgCl2, 0.1 mM thiamine pyrophosphate, 0.2 ml cell extract, and various concentrations of the herbicide of interest. The reaction mixtures were incubated at 30° C. for 75 minutes and the reaction terminated with the addition of 0.1 ml of 50% (v/v) H2 SO4. Following further incubation at 40° C. for 20 minutes, the acetoin formed from acetolactate by acidification was quantitated using the method of Westerfield (1945, J. Biol. Chem. 161: 495). To 0.2 ml of reaction mixture, 0.8 ml of water, 0.5 ml of 0.5% (w/v) creatine, and 0.5 ml of 5% (w/v) naphthol in 10% (w/v) NaOH was added. After mixing, solutions were incubated at room temperature for one hour. The development of pink color was quantitated by measuring light absorbance at 530 nm.
Assays were conducted to determine if acetohydroxyacid synthase extracted from line XA17 tissue was altered with respect to herbicide sensitivity. Such a change would signify that an alteration of this enzyme conferred the herbicide resistance. Assays were conducted as described supra.

[3] = system: XA17 seedlings homozygous for the herbicide resistance trait; test: Seedling assay, XA17 seedlings homozygous for the resistance trait; type: in vivo, maize; conditions: for resistance of XA17 homozygous seedlings: vs control seedlings
Protocol: as §1, §2

line XA17 tissue = test: Callus growth inhibition, resistant line XA17; type: cell-based, maize; conditions: Zea mays, 336 h, read-out: level giving a 50% growth inhibition
Protocol: as §3
Initially, the maximum level of 214 in which line XA17 would grow stably was determined. Stock tissue which had been maintained in the presence of 0.1 mg per liter 214 was transferred to media containing 214 levels ranging up to 30 mg per liter. Tissue was maintained for several subculture intervals and the growth rate evaluated.

QJ22 seedlings = test: Seedling assay, QJ22 seedlings homozygous for the resistance trait; type: in vivo, maize; conditions: seedling assays
Source text: Plants were regenerated from cell line QJ22 and seed obtained as described previously for XA17, supra. […] Seeds which are uniformly homozygous for the resistance trait were obtained as described for XA17, supra.

[4] = system: Callus tissue from line QJ22; test: Callus growth inhibition, line QJ22; type: cell-based, maize; conditions: line QJ22 vs control tissue; based on herbicide amount giving 50% reduction in growth rate
Protocol: (§5) Callus tissue from line QJ22 was tested also with the compound 567. The numbers represent the fold increase in herbicide concentration that can be tolerated by each of the cell lines as compared to control tissue. The values were calculated based on the amount of herbicide that gave a 50% reduction in growth rate.

[5] = system: maize cell suspension cultures; test: Reversal of herbicide growth inhibition by leucine, valine and isoleucine; type: cell-based; conditions: 1 mM each of leucine, isoleucine, and valine; cell suspension cultures
Protocol: Growth inhibition studies were carried out in 125 ml flasks containing 30 ml of test media. 997 was filter sterilized and added to cooling media following autoclaving. Test media were innoculated with cells to give a settled cell volume (15 minutes without centrifugation) of 0.2 ml per 10 ml of suspension. After either six or seven days growth settled cell volumes were again quantitated.
Cells were tested to determine whether the herbicide induced inhibition of growth was the result of the decreased availability of the three branched chain amino acids. Cells were exposed to toxic levels of 997 (1×10^-6 M) in media either supplemented with 1 mM concentrations of leucine, valine, and isoleucine or with no supplementation. Culture growth rates in the absence of amino acid supplementation and in the presence of 1×10^-6 M 997 were reduced to 16% that of herbicide free cultures.
Experiments were conducted to determine the optimum supplementation levels of each of the three amino acids to obtain maximum herbicide protection and for gaining insight into the site of action of the compound.

[6] = system: Callus tissue from line UV18; test: Callus growth inhibition, line UV18; type: cell-based, maize; conditions: line UV18 vs control tissue; based on herbicide amount giving 50% reduction in growth rate
Protocol: The UV18 cell line was first observed after 25 weeks of selection comprising 9 subculture intervals. The tissue in the selection procedure had been exposed to 0.1 mg per liter 214 for four subculture intervals followed by exposure to 0.3 mg per liter 214 for four subculture intervals. UV18 was identified during the ninth subculture as a rapidly growing sector of tissue with good morphology.
as §5

[7] = system: acetohydroxyacid synthase (AHAS); test: AHAS activity assay, extract of maize cell cultures / control tissue; type: biochemical
Protocol: as §4, with “Plant” for “Assays were conducted as a modification of the procedure of Smith et al. (1979, Molec. Gen. Genet. 169: 299-314). Plant”, “Following further incubation at 40° C. for 20 minutes, the acetoin formed from acetolactate by acidification was quantitated using the method of Westerfield (1945, J. Biol. Chem. 161: 495).” left out, “hour.” for “hour. The development of pink color was quantitated by measuring light absorbance at 530 nm.”

Tomato callus lines = conditions: callus cultures initiated from regenerated plants (Thomas and Pratt, 1983); cited from earlier work

Structure (SMILES)	IC50 (control seedlings) [µM]	IC50 [1] [µg/mL]	IC50 [2] [µM]	IC50 ([3]; Zea mays, read-out: concentration inhibiting shoot growth 50%) [µM]	resistance of XA17 homozygous seedlings [3]	IC50 (line XA17 tissue) [µg/mL]	tolerance of QJ22 homozygous seedlings compared to control seedlings (QJ22 seedlings)	Callus Growth Fold Increase in Tolerance [4]	effect of media supplementation with leucine, isoleucine, valine on growth inhibition [5]	change in herbicide sensitivity of AHAS, line XA17 vs control, on a concentration basis ([2]; maize, ahas, line xa17) [fold]	Callus Growth Fold Increase in Tolerance [6] [fold]	effect on AHAS enzyme activity ([7]; AHAS activity from maize cell cultures)	IC50 ([7]; AHAS activity of control tissue, read-out: concentration inhibiting AHAS activity 50%) [µM]	IC50 (control seedlings; control seedlings) [µM]	shoot growth inhibition at the highest concentration tested ([3]; 3×10^-6 M, seedlings homozygous for the resistance trait)	IC50 (line XA17 tissue; line XA17, two week growth inhibition study) [µg/mL]	increase over wild-type in resistance (Tomato callus lines) [fold]
COc1nc(C)nc(NC(=O)NS(=O)(=O)c2ccccc2Cl)n1 [chlorsulfuron, 2-chloro-N-[(4-methoxy-6-methyl-1,3,5-triazin-2-yl)aminocarbonyl]benzenesulfonamide]	0.01	0.01 (≈ 0.028 µM)	0.3	0.1	10 fold	10 (≈ 28 µM)	no tolerance	–	–	–	–	–	–	–	–	–	–
CCc1cnc(C2=NC(=O)C(C)(C(C)C)N2)c(C(=O)O)c1 (stereo not drawn) [compound 499, 5-ethyl,2-(5-isopropyl-5-methyl-4-oxo-2-imidazolin-2-yl)nicotinic acid]	–	0.1 to 0.3 (≈ 0.346 to 1.04 µM)	3000 to 30000	–	–	> 30	30 fold	30-50 fold	reversed the growth inhibitory effects	≥ 1000	100	inhibited the enzyme activity	1 to 10	–	–	–	–
Cc1cc(C)n2nc(S(=O)(=O)Nc3c(Cl)cccc3Cl)nc2n1 [compound 567, 5,7-dimethyl-N-(2,6-dichlorophenyl)-1,2,4-triazolo[1,5-a)pyrimidine-2-sulfonamide]	–	0.1 to 0.3 (≈ 0.269 to 0.806 µM)	–	–	at least 30 fold	–	no tolerance	–	–	–	–	–	–	0.1	no inhibition	> 30	–
C[n+]1ccc(-c2cc[n+](C)cc2)cc1 [paraquat]	–	–	–	–	–	–	–	–	–	–	–	–	–	–	–	–	≥ 30
